According to patent US4988687A, “Cephalosporin derivatives, and antibacterial agents” (priority 1986, dated 1991):
≈ marks a conversion by molar mass, not a printed value. Like-named read-outs stand apart in the source and are kept apart here.

Experiments:
C. freundii GN346/16 = test: agar plate dilution method, MIC against C. freundii GN346/16; format: cell-based; details: Citrobacter freundii, read-out: Minimum Inhibitory Concentration (MIC)
Description: (§1) The in vitro antibacterial activities of the compounds of the present invention against various microorganisms, were measured by the following agar plate dilution method. One platinum loopfull of each test microorganism incubated overnight in Mueller Hinton broth, was inoculated to Mueller Hinton agar (inoculum size: 10^6 CFU/ml) Such culture media containing various antibiotics in various concentrations were prepared After incubation at 37° C. for 16 hours, the minimum inhibitory concentrations (MIC: μg/ml) were measured. As comparative compounds, cefotaxime, oeftazidime and the compounds disclosed in Example 2 of Japanese Unexamined Patent Publication No. 215690/1985 e.g. sodium 7-[2-(2-aminothiazol-4-yl)-2-ethoxyiminoacetamido]-3-(1-carboxylatemethylpyridinio-4-yl)thiomethyl-3-cephem-4-carboxylate (hereinafter referred to simply as "Reference Example A") were employed.

S. aureus JS1 = test: agar plate dilution method, MIC against S. aureus JS1; format: cell-based; details: Staphylococcus aureus, read-out: Minimum Inhibitory Concentration (MIC)
Description: as §1

A. calcoaceticus No. 4 = test: agar plate dilution method, MIC against A. calcoaceticus No. 4; format: cell-based; details: Acinetobacter calcoaceticus, read-out: Minimum Inhibitory Concentration (MIC)
Description: as §1

Ps. maltophilia GN 12873 = test: agar plate dilution method, MIC against Ps. maltophilia GN 12873; format: cell-based, Pseudomonas maltophilia; details: Stenotrophomonas maltophilia, GN12873; Ps. maltophilia GN 12873 (lactamase-producing strain); 10^6 CFU/ml, 37° C., 16 hours; read-out: Minimum Inhibitory Concentration (MIC)
Description: as §1

S. aureus BB5703 = test: agar plate dilution method, MIC against S. aureus BB5703; format: cell-based; details: Staphylococcus aureus, read-out: Minimum Inhibitory Concentration (MIC)
Description: as §1

S. epidermidis IAM12012 = test: agar plate dilution method, MIC against S. epidermidis IAM12012; format: cell-based; details: Staphylococcus epidermidis, read-out: Minimum Inhibitory Concentration (MIC)
Description: as §1

K. pneumoniae PCI-602 = test: agar plate dilution method, MIC against K. pneumoniae PCI-602; format: cell-based; details: Klebsiella pneumoniae, PCI602, 16 h, read-out: Minimum Inhibitory Concentration (MIC)
Description: as §1

E. coli NIHJ JC2 = test: agar plate dilution method, MIC against E. coli NIHJ JC2; format: cell-based; details: Escherichia coli, read-out: Minimum Inhibitory Concentration (MIC)
Description: as §1

M. morganii GN5407 = test: agar plate dilution method, MIC against M. morganii GN5407; format: cell-based; details: Morganella morganii; M. morganii GN5407 (lactamase-producing strain); 10^6 CFU/ml, 37° C., 16 hours; read-out: Minimum Inhibitory Concentration (MIC)
Description: as §1

K. oxytoca GN10650 = test: agar plate dilution method, MIC against K. oxytoca GN10650; format: cell-based; details: Klebsiella oxytoca, read-out: Minimum Inhibitory Concentration (MIC)
Description: as §1

P. vulgaris No. 33 = test: agar plate dilution method, MIC against P. vulgaris No. 33; format: cell-based; details: Proteus vulgaris; P. vulgaris No. 33 (lactamase-producing strain); 10^6 CFU/ml, 37° C., 16 hours; read-out: Minimum Inhibitory Concentration (MIC)
Description: as §1

E. coli GN5482 = test: agar plate dilution method, MIC against E. coli GN5482; format: cell-based; details: Escherichia coli; E. coli GN5482 (lactamase-producing strain); 10^6 CFU/ml, 37° C., 16 hours; read-out: Minimum Inhibitory Concentration (MIC)
Description: as §1

Ps. aeruginosa AKR17 = test: agar plate dilution method, MIC against Ps. aeruginosa AKR17; format: cell-based; details: Pseudomonas aeruginosa; Ps. aeruginosa AKR17; 10^6 CFU/ml, 37° C., 16 hours; read-out: Minimum Inhibitory Concentration (MIC)
Description: as §1

P. vulgaris HX-19 = test: agar plate dilution method, MIC against P. vulgaris HX-19; format: cell-based; details: Proteus vulgaris, read-out: Minimum Inhibitory Concentration (MIC)
Description: as §1

Ps. aeruginosa AK 109 = test: agar plate dilution method, MIC against Ps. aeruginosa AK 109; format: cell-based; details: Pseudomonas aeruginosa, AK109, 16 h, read-out: Minimum Inhibitory Concentration (MIC)
Description: as §1

E. coli CSH2 (RK1) = test: agar plate dilution method, MIC against E. coli CSH2 (RK1); format: cell-based; details: Escherichia coli, 16 h, read-out: Minimum Inhibitory Concentration (MIC)
Description: as §1

Ps. aeruginosa IFO3445 = test: agar plate dilution method, MIC against Ps. aeruginosa IFO3445; format: cell-based; details: Pseudomonas aeruginosa, IFO3445, 16 h, read-out: Minimum Inhibitory Concentration (MIC)
Description: as §1

S. marcescens No. 16-2 = test: agar plate dilution method, MIC against S. marcescens No. 16-2; format: cell-based; details: Serratia marcescens, NO.162, 16 h, read-out: Minimum Inhibitory Concentration (MIC)
Description: as §1

S. marcescens IAM 1184 = test: agar plate dilution method, MIC against S. marcescens IAM 1184; format: cell-based; details: Serratia marcescens, IAM1184; S. marcescens IAM 1184; 10^6 CFU/ml, 37° C., 16 hours; read-out: Minimum Inhibitory Concentration (MIC)
Description: as §1

Ps. cepacia 23 = test: agar plate dilution method, MIC against Ps. cepacia 23; format: cell-based, Pseudomonas cepacia; details: read-out: Minimum Inhibitory Concentration (MIC)
Description: as §1

E. cloacae Nek 39 = test: agar plate dilution method, MIC against E. cloacae Nek 39; format: cell-based; details: Enterobacter cloacae, NEK39; E. cloacae Nek 39 (lactamase-producing strain); 10^6 CFU/ml, 37° C., 16 hours; read-out: Minimum Inhibitory Concentration (MIC)
Description: as §1

E. coli CSH(RE45) = test: agar plate dilution method, MIC against E. coli CSH(RE45); format: cell-based; details: Escherichia coli, 16 h, read-out: Minimum Inhibitory Concentration (MIC)
Description: as §1

S. aureus 209P NIHJ-JC1 = test: agar plate dilution method, MIC against S. aureus 209P NIHJ-JC1; format: cell-based; details: Staphylococcus aureus, read-out: Minimum Inhibitory Concentration (MIC)
Description: as §1

E. cloacae 963 = test: agar plate dilution method, MIC against E. cloacae 963; format: cell-based; details: read-out: Minimum Inhibitory Concentration (MIC)
Description: as §1

C. freundii GN346 = test: agar plate dilution method, MIC against C. freundii GN346; format: cell-based; details: Citrobacter freundii; C. freundii GN346 (lactamase-producing strain); 10^6 CFU/ml, 37° C., 16 hours; read-out: Minimum Inhibitory Concentration (MIC)
Description: as §1

M. luteus ATCC9341 = test: agar plate dilution method, MIC against M. luteus ATCC9341; format: cell-based; details: Micrococcus luteus, read-out: Minimum Inhibitory Concentration (MIC)
Description: as §1

K. pneumoniae No. 42 = test: agar plate dilution method, MIC against K. pneumoniae No. 42; format: cell-based; details: Klebsiella pneumoniae; K. pneumoniae No. 42 (lactamase-producing strain); 10^6 CFU/ml, 37° C., 16 hours; read-out: Minimum Inhibitory Concentration (MIC)
Description: as §1

| SMILES | MIC (Ps. maltophilia GN 12873) [µg/mL] | MIC (K. pneumoniae PCI-602) [µg/mL] | MIC (M. morganii GN5407) [µg/mL] | MIC (P. vulgaris No. 33) [µg/mL] | MIC (E. coli GN5482) [µg/mL] | MIC (Ps. aeruginosa AKR17) [µg/mL] | MIC (Ps. aeruginosa AK 109) [µg/mL] | MIC (E. coli CSH2 (RK1)) [µg/mL] | MIC (Ps. aeruginosa IFO3445) [µg/mL] | MIC (S. marcescens No. 16-2) [µg/mL] | MIC (S. marcescens IAM 1184) [µg/mL] | MIC (E. cloacae Nek 39) [µg/mL] | MIC (E. coli CSH(RE45)) [µg/mL] | MIC (C. freundii GN346) [µg/mL] | MIC (K. pneumoniae No. 42) [µg/mL] | other results |
| --- | --- | --- | --- | --- | --- | --- | --- | --- | --- | --- | --- | --- | --- | --- | --- | --- |
| Nc1nc(/C(=N/OC(C(=O)O)c2ccccc2)C(=O)NC2C(=O)N3C(C(=O)[O-])=C(CSc4cc[n+](CC(=O)O)cc4)CSC23)cs1 (stereo not drawn) [Example 3, disodium 7-[2-(2-aminothiazol-4-yl)-2-(α-carboxylatebenzyloxyimino)acetamide]-3-(1-caboxylatemethylpyridinio-4-yl)thiomethyl-3-cephem-4-carboxylate (syn-isomer)] | > 100 | < 0.006 | 0.78 | 0.1 | 0.78 | > 100 | 6.25 | 0.78 | 3.12 | 6.25 | 0.39 | 6.25 | 0.78 | 100 | 1.56 | MIC (C. freundii GN346/16; GN346, 16 h): 1.56 µg/mL; MIC (S. aureus JS1; S. aureus JS1 (methicilline resistant; lactamase-producing strain), 10^6 CFU/ml, 37° C., 16 hours): 50 µg/mL; MIC (A. calcoaceticus No. 4; A. calcoaceticus No. 4, 10^6 CFU/ml, 37° C., 16 hours): 50 µg/mL; MIC (S. aureus BB5703; S. aureus BB5703, 10^6 CFU/ml, 37° C., 16 hours): 25 µg/mL; MIC (S. epidermidis IAM12012; IAM12012, 16 h): 6.25 µg/mL; MIC (E. coli NIHJ JC2; NIHJJC2, 16 h): 1.56 µg/mL; MIC (K. oxytoca GN10650; K. oxytoca GN10650 (lactamase-producing strain), 10^6 CFU/ml, 37° C., 16 hours): 0.78 µg/mL; MIC (P. vulgaris HX-19; HX19, P. vulgaris HX-19, 10^6 CFU/ml, 37° C., 16 hours): 0.0125 µg/mL; MIC (Ps. cepacia 23; Burkholderia cepacia, 23, 16 h): 3.12 µg/mL; MIC (S. aureus 209P NIHJ-JC1; 16 h): 12.5 µg/mL; MIC (E. cloacae 963; Enterobacter cloacae, 963, 16 h): 1.56 µg/mL; MIC (M. luteus ATCC9341; ATCC9341, 16 h): 3.12 µg/mL |
| Nc1nc(C(=NOCc2ccc(O)c(O)c2)C(=O)NC2C(=O)N3C(C(=O)[O-])=C(CSc4cc[n+](CC(=O)O)cc4)CSC23)cs1 (stereo not drawn) [Example 4, 7-[2-(2-aminothiazol-4-yl)-2-(3,4-dihydroxybenzyloxyimino)acetamido]-3-(1-carboxymethylpyridinio-4-yl)thiomethyl-3-cephem-4-carboxylate (syn-isomer)] | > 100 | < 0.006 | 0.1 (≈ 0.149 µM) | 0.2 (≈ 0.297 µM) | 0.39 (≈ 0.58 µM) | > 100 | 1.56 (≈ 2.32 µM) | 0.05 (≈ 0.0743 µM) | 3.12 (≈ 4.64 µM) | 6.25 (≈ 9.29 µM) | 0.1 (≈ 0.149 µM) | 0.78 (≈ 1.16 µM) | 0.025 (≈ 0.0372 µM) | 6.25 (≈ 9.29 µM) | 0.2 (≈ 0.297 µM) | MIC (C. freundii GN346/16; C. freundii GN346/16, 10^6 CFU/ml, 37° C., 16 hours): 0.2 µg/mL (≈ 0.297 µM); MIC (S. aureus JS1; JS1, 16 h): 6.25 µg/mL (≈ 9.29 µM); MIC (A. calcoaceticus No. 4; NO.4, 16 h): 1.56 µg/mL (≈ 2.32 µM); MIC (S. aureus BB5703; BB5703, 16 h): 3.12 µg/mL (≈ 4.64 µM); MIC (S. epidermidis IAM12012; S. epidermidis IAM12012, 10^6 CFU/ml, 37° C., 16 hours): 0.78 µg/mL (≈ 1.16 µM); MIC (E. coli NIHJ JC2; NIHJJC2, E. coli NIHJ JC2, 10^6 CFU/ml, 37° C., 16 hours): 0.05 µg/mL (≈ 0.0743 µM); MIC (K. oxytoca GN10650; GN10650, 16 h): 0.78 µg/mL (≈ 1.16 µM); MIC (P. vulgaris HX-19; HX19, 16 h): 0.025 µg/mL (≈ 0.0372 µM); MIC (Ps. cepacia 23; Burkholderia cepacia, Ps. cepacia 23, 10^6 CFU/ml, 37° C., 16 hours): 0.39 µg/mL (≈ 0.58 µM); MIC (S. aureus 209P NIHJ-JC1; S. aureus 209P NIHJ-JC1, 10^6 CFU/ml, Mueller Hinton agar, 37° C., 16 hours): 0.39 µg/mL (≈ 0.58 µM); MIC (E. cloacae 963; Enterobacter cloacae, E. cloacae 963, 10^6 CFU/ml, 37° C., 16 hours): 0.1 µg/mL (≈ 0.149 µM); MIC (M. luteus ATCC9341; M. luteus ATCC9341, 10^6 CFU/ml, 37° C., 16 hours): 0.39 µg/mL (≈ 0.58 µM) |
